Measured values published in the kinase profiling compilation of Christmann-Franck et al. (2016).

Columns and labels:
Assay in all cases: KINOMEscan competition binding
Conditions in all cases: compound 10.0 µM
STK39 (human) = STK39 (human) (UniProt Q9UEW8)
PDGFRA (human) = PDGFRA (human) (UniProt P16234)
PDGFRB (human) = PDGFRB (human) (UniProt P09619)
CSNK2A2 (human) = CSNK2A2 (human) (UniProt P19784)
GSK3A (human) = GSK3A (human) (UniProt P49840)
CDC42BPA (human) = CDC42BPA (human) (UniProt Q5VT25)
GRK4 (human) = GRK4 (human) (UniProt P32298)
Chain of GRK4 (human) (P32298 whole entry, looked up): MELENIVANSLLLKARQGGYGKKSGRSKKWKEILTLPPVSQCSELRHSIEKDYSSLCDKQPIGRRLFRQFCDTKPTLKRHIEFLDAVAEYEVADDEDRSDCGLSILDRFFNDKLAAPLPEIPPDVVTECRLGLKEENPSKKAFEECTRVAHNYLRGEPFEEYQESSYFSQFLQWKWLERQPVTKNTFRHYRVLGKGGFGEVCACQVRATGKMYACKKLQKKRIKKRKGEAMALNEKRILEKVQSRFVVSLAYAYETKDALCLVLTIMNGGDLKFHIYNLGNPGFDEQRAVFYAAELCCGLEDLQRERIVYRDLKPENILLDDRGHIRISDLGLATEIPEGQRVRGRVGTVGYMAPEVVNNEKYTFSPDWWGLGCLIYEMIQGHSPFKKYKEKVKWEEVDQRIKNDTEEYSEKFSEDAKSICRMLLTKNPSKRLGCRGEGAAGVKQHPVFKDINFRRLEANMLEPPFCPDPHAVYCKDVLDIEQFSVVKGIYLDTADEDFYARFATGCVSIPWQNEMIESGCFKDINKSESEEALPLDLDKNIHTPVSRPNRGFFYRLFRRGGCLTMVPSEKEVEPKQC

PTK2 (human) = PTK2 (human) (UniProt Q05397)
FLT4 (human) = FLT4 (human) (UniProt P35916)
MAP2K4 (human) = MAP2K4 (human) (UniProt P45985)
CDC42BPG (human) = CDC42BPG (human) (UniProt Q6DT37)
CSNK1A1L (human) = CSNK1A1L (human) (UniProt Q8N752)
ROS1 (human) = ROS1 (human) (UniProt P08922)
Chain of ROS1 (human) (P08922 whole entry, looked up): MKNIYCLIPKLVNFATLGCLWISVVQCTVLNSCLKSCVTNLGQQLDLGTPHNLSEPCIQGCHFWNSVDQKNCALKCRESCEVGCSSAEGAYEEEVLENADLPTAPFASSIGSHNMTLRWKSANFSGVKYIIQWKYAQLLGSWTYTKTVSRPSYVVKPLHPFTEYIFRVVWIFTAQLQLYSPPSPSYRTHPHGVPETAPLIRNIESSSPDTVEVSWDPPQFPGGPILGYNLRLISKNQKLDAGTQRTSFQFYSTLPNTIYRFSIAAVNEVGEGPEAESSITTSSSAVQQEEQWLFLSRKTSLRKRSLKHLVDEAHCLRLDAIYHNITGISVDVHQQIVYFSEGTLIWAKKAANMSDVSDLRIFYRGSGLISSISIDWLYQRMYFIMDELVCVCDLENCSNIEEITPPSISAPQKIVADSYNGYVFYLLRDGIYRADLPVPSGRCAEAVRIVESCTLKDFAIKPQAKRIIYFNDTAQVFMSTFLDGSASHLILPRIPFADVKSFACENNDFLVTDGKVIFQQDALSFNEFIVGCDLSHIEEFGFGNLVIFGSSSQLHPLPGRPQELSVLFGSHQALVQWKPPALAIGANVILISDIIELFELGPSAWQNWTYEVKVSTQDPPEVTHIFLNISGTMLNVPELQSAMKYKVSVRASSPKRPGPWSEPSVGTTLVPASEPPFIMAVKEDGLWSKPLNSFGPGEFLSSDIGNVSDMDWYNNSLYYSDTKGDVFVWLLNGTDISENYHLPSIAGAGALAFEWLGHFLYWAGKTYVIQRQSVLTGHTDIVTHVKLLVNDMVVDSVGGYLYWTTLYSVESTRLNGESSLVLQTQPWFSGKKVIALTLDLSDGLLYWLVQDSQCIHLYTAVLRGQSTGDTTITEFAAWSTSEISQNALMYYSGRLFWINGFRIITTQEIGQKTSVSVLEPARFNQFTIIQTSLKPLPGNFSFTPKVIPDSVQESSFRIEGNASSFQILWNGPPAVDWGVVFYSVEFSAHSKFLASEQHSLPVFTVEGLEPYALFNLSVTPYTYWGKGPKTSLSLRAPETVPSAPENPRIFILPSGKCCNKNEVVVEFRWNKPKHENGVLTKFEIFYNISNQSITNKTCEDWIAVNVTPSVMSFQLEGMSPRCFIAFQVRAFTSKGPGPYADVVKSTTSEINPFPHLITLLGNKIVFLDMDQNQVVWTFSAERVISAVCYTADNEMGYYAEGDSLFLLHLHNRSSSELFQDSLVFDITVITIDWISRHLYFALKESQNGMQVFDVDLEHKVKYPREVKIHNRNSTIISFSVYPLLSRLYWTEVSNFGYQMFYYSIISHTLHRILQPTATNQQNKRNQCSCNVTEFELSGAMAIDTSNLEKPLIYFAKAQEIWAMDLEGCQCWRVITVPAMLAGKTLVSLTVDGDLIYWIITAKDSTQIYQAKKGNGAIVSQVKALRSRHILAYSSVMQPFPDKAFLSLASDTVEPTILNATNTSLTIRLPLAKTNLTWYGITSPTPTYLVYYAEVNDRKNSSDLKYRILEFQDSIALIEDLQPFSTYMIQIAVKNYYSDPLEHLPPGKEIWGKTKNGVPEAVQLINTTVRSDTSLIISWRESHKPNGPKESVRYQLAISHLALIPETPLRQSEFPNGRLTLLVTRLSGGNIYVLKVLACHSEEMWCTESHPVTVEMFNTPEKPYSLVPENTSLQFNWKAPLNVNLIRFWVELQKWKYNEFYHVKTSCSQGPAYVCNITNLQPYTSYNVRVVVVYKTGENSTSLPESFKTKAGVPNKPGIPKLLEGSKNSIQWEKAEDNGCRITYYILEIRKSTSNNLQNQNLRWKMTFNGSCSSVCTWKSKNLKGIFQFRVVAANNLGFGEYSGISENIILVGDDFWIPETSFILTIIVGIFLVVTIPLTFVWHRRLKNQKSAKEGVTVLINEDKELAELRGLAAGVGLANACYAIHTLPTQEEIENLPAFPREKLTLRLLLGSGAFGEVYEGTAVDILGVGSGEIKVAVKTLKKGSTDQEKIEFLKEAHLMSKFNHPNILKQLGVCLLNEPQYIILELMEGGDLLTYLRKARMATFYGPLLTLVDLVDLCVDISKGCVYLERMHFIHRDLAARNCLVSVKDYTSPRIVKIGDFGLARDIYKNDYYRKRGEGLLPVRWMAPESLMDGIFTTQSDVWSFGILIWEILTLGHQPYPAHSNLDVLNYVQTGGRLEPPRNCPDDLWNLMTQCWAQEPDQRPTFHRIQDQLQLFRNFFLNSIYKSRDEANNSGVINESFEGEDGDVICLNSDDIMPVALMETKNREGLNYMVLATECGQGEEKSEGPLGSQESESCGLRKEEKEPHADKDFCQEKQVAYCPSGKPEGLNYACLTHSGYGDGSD

PRKCD (human) = PRKCD (human) (UniProt Q05655)
MAPKAPK5 (human) = MAPKAPK5 (human) (UniProt Q8IW41)
INSRR (human) = INSRR (human) (UniProt P14616)
PAK7 (human) = PAK7 (human) (UniProt Q9P286)
MKNK1 (human) = MKNK1 (human) (UniProt Q9BUB5)
DYRK1B (human) = DYRK1B (human) (UniProt Q9Y463)
PRKX (human) = PRKX (human) (UniProt P51817)
CAMK2A (human) = CAMK2A (human) (UniProt Q9UQM7)
TEC (human) = TEC (human) (UniProt P42680)
MAPK7 (human) = MAPK7 (human) (UniProt Q13164)
PTK6 (human) = PTK6 (human) (UniProt Q13882)
RIPK1 (human) = RIPK1 (human) (UniProt Q13546)
EPHA1 (human) = EPHA1 (human) (UniProt P21709)
AXL (human) = AXL (human) (UniProt P30530)
MYO3A (human) = MYO3A (human) (UniProt Q8NEV4)
Chain of MYO3A (human) (Q8NEV4 whole entry, looked up): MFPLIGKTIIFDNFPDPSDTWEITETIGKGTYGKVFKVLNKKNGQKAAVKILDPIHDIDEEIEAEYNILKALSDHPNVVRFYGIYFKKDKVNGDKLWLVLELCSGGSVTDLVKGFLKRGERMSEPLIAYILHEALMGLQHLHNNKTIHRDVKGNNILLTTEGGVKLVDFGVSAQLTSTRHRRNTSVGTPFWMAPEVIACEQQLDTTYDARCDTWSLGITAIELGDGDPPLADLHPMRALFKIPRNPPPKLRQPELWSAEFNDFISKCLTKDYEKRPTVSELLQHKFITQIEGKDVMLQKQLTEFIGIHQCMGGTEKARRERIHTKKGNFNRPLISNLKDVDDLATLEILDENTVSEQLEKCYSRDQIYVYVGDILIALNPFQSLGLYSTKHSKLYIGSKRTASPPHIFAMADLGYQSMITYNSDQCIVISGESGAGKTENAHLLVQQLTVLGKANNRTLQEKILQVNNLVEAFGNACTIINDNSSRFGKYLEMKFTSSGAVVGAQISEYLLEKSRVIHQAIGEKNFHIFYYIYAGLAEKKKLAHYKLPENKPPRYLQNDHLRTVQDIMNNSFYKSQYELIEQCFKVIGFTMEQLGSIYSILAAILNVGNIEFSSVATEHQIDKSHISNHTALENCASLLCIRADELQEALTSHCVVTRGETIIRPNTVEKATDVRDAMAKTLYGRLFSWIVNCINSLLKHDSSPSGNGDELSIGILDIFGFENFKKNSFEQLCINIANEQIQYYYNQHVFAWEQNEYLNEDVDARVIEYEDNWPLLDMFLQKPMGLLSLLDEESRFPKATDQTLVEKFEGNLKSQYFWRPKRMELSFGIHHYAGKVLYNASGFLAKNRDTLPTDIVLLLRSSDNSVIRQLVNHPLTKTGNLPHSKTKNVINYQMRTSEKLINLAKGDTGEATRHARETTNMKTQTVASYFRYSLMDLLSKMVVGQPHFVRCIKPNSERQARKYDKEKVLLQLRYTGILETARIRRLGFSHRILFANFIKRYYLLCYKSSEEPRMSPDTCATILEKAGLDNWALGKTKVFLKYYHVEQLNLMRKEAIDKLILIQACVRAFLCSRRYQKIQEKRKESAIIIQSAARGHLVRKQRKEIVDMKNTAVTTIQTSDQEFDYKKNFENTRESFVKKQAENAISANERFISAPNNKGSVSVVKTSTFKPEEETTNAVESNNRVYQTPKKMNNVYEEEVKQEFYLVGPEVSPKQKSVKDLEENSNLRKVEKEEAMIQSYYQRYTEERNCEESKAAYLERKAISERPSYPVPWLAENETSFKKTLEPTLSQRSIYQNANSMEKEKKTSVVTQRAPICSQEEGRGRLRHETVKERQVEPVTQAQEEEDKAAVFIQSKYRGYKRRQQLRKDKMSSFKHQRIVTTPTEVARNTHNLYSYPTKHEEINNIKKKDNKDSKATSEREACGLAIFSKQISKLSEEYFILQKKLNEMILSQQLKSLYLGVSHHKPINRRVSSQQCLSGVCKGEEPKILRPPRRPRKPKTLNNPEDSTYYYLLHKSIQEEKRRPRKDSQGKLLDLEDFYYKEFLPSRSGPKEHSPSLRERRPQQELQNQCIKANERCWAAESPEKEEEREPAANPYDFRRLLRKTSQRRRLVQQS

[1] = system: PIK3CA (human), P42336 [E542K]
CLK4 (human) = CLK4 (human) (UniProt Q9HAZ1)
STK17B (human) = STK17B (human) (UniProt O94768)
RAF1 (human) = RAF1 (human) (UniProt P04049)
CAMK1G (human) = CAMK1G (human) (UniProt Q96NX5)
[2] = biological target: JAK1 JH1 catalytic (human) (UniProt P23458)
RPS6KA1 KD2 (human) = RPS6KA1 KD2 (human) (UniProt Q15418)
PAK1 (human) = PAK1 (human) (UniProt Q13153)
SLK (human) = SLK (human) (UniProt Q9H2G2)
STK32C (human) = STK32C (human) (UniProt Q86UX6)
IRAK3 (human) = IRAK3 (human) (UniProt Q9Y616)
Chain of IRAK3 (human) (Q9Y616 whole entry, looked up): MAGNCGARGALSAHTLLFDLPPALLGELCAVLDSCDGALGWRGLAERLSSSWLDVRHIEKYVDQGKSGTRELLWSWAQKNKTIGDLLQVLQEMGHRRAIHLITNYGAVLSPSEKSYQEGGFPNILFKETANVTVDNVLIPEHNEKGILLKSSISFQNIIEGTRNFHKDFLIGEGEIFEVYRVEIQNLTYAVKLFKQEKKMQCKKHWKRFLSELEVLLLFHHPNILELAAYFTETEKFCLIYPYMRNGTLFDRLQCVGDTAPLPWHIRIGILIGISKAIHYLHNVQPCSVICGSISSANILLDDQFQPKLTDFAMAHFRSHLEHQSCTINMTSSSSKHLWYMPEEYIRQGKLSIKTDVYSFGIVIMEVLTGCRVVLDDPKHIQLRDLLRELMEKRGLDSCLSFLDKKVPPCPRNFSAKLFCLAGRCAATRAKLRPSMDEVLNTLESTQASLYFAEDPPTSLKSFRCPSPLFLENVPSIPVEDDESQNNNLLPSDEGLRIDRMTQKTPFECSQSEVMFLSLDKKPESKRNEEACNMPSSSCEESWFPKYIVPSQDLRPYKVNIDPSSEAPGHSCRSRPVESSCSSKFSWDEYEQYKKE

[3] = biological target: JAK3 JH1 catalytic (human) (UniProt P52333)
MAST1 (human) = MAST1 (human) (UniProt Q9Y2H9)

**Q.** How did the kinase still bound, per cent of control (STK39 (human)) turn out when Cn1cc(C2=C(c3ccc(Cl)cc3Cl)C(=O)NC2=O)c2ccccc21 was run?
**A.** 100%

**Q.** And the kinase still bound, per cent of control (PDGFRA (human))?
**A.** 100%

**Q.** And the kinase still bound, per cent of control (PDGFRB (human))?
**A.** 82%

**Q.** And the kinase still bound, per cent of control (CSNK2A2 (human))?
**A.** 99%

**Q.** What about the kinase still bound, per cent of control (GSK3A (human)) of the same compound?
**A.** 0%

**Q.** What about the kinase still bound, per cent of control (CDC42BPA (human)) of the same compound?
**A.** 100%

**Q.** What about the kinase still bound, per cent of control (GRK4 (human)) of the same compound?
**A.** 100%

**Q.** And the kinase still bound, per cent of control (PTK2 (human))?
**A.** 84%

**Q.** And the kinase still bound, per cent of control (FLT4 (human))?
**A.** 97%

**Q.** What about the kinase still bound, per cent of control (MAP2K4 (human)) of the same compound?
**A.** 82%

**Q.** What about the kinase still bound, per cent of control (CDC42BPG (human)) of the same compound?
**A.** 100%

**Q.** What about the kinase still bound, per cent of control (CSNK1A1L (human)) of the same compound?
**A.** 100%

**Q.** What about the kinase still bound, per cent of control (ROS1 (human)) of the same compound?
**A.** 100%

**Q.** What about the kinase still bound, per cent of control (PRKCD (human)) of the same compound?
**A.** 41%

**Q.** What about the kinase still bound, per cent of control (MAPKAPK5 (human)) of the same compound?
**A.** 100%

**Q.** What about the kinase still bound, per cent of control (INSRR (human)) of the same compound?
**A.** 72%

**Q.** And the kinase still bound, per cent of control (PAK7 (human))?
**A.** 75%

**Q.** And the kinase still bound, per cent of control (MKNK1 (human))?
**A.** 84%

**Q.** And the kinase still bound, per cent of control (DYRK1B (human))?
**A.** 2.2%

**Q.** And the kinase still bound, per cent of control (PRKX (human))?
**A.** 100%

**Q.** What about the kinase still bound, per cent of control (CAMK2A (human)) of the same compound?
**A.** 36%

**Q.** And the kinase still bound, per cent of control (TEC (human))?
**A.** 84%

**Q.** What about the kinase still bound, per cent of control (MAPK7 (human)) of the same compound?
**A.** 79%

**Q.** What about the kinase still bound, per cent of control (PTK6 (human)) of the same compound?
**A.** 100%

**Q.** And the kinase still bound, per cent of control (RIPK1 (human))?
**A.** 100%

**Q.** What about the kinase still bound, per cent of control (EPHA1 (human)) of the same compound?
**A.** 100%

**Q.** What about the kinase still bound, per cent of control (AXL (human)) of the same compound?
**A.** 100%

**Q.** And the kinase still bound, per cent of control (MYO3A (human))?
**A.** 95%

**Q.** And the kinase still bound, per cent of control [1]?
**A.** 100%

**Q.** And the kinase still bound, per cent of control (CLK4 (human))?
**A.** 7.8%

**Q.** And the kinase still bound, per cent of control (STK17B (human))?
**A.** 100%

**Q.** And the kinase still bound, per cent of control (RAF1 (human))?
**A.** 91%

**Q.** What about the kinase still bound, per cent of control (CAMK1G (human)) of the same compound?
**A.** 70%

**Q.** What about the kinase still bound, per cent of control [2] of the same compound?
**A.** 90%

**Q.** What about the kinase still bound, per cent of control (RPS6KA1 KD2 (human)) of the same compound?
**A.** 53%

**Q.** What about the kinase still bound, per cent of control (PAK1 (human)) of the same compound?
**A.** 80%

**Q.** And the kinase still bound, per cent of control (SLK (human))?
**A.** 8.7%

**Q.** And the kinase still bound, per cent of control (STK32C (human))?
**A.** 94%

**Q.** And the kinase still bound, per cent of control (IRAK3 (human))?
**A.** 100%

**Q.** And the kinase still bound, per cent of control [3]?
**A.** 98%

**Q.** And the kinase still bound, per cent of control (MAST1 (human))?
**A.** 82%

**Q.** COc1ccc(CNC(=O)Nc2ncc([N+](=O)[O-])s2)cc1 was tested. Which kinase still bound, per cent of control (STK39 (human)) did it give?
**A.** 100%

**Q.** What about the kinase still bound, per cent of control (PDGFRA (human)) of the same compound?
**A.** 100%

**Q.** And the kinase still bound, per cent of control (PDGFRB (human))?
**A.** 88%

**Q.** And the kinase still bound, per cent of control (CSNK2A2 (human))?
**A.** 100%

**Q.** And the kinase still bound, per cent of control (GSK3A (human))?
**A.** 0.1%

**Q.** And the kinase still bound, per cent of control (CDC42BPA (human))?
**A.** 100%

**Q.** What about the kinase still bound, per cent of control (GRK4 (human)) of the same compound?
**A.** 100%

**Q.** What about the kinase still bound, per cent of control (PTK2 (human)) of the same compound?
**A.** 91%

**Q.** What about the kinase still bound, per cent of control (FLT4 (human)) of the same compound?
**A.** 100%

**Q.** What about the kinase still bound, per cent of control (MAP2K4 (human)) of the same compound?
**A.** 79%

**Q.** And the kinase still bound, per cent of control (CDC42BPG (human))?
**A.** 100%

**Q.** What about the kinase still bound, per cent of control (CSNK1A1L (human)) of the same compound?
**A.** 99%

**Q.** What about the kinase still bound, per cent of control (ROS1 (human)) of the same compound?
**A.** 100%

**Q.** What about the kinase still bound, per cent of control (PRKCD (human)) of the same compound?
**A.** 100%

**Q.** What about the kinase still bound, per cent of control (MAPKAPK5 (human)) of the same compound?
**A.** 100%

**Q.** What about the kinase still bound, per cent of control (INSRR (human)) of the same compound?
**A.** 93%

**Q.** And the kinase still bound, per cent of control (PAK7 (human))?
**A.** 96%

**Q.** And the kinase still bound, per cent of control (MKNK1 (human))?
**A.** 100%

**Q.** And the kinase still bound, per cent of control (DYRK1B (human))?
**A.** 100%

**Q.** What about the kinase still bound, per cent of control (PRKX (human)) of the same compound?
**A.** 42%

**Q.** And the kinase still bound, per cent of control (CAMK2A (human))?
**A.** 100%

**Q.** What about the kinase still bound, per cent of control (TEC (human)) of the same compound?
**A.** 100%

**Q.** What about the kinase still bound, per cent of control (MAPK7 (human)) of the same compound?
**A.** 97%

**Q.** What about the kinase still bound, per cent of control (PTK6 (human)) of the same compound?
**A.** 92%

**Q.** What about the kinase still bound, per cent of control (RIPK1 (human)) of the same compound?
**A.** 100%

**Q.** And the kinase still bound, per cent of control (EPHA1 (human))?
**A.** 100%

**Q.** And the kinase still bound, per cent of control (AXL (human))?
**A.** 100%

**Q.** And the kinase still bound, per cent of control (MYO3A (human))?
**A.** 100%

**Q.** What about the kinase still bound, per cent of control [1] of the same compound?
**A.** 100%

**Q.** And the kinase still bound, per cent of control (CLK4 (human))?
**A.** 87%

**Q.** And the kinase still bound, per cent of control (STK17B (human))?
**A.** 74%

**Q.** What about the kinase still bound, per cent of control (RAF1 (human)) of the same compound?
**A.** 63%

**Q.** What about the kinase still bound, per cent of control (CAMK1G (human)) of the same compound?
**A.** 100%

**Q.** What about the kinase still bound, per cent of control [2] of the same compound?
**A.** 76%

**Q.** What about the kinase still bound, per cent of control (RPS6KA1 KD2 (human)) of the same compound?
**A.** 100%

**Q.** What about the kinase still bound, per cent of control (PAK1 (human)) of the same compound?
**A.** 94%

**Q.** What about the kinase still bound, per cent of control (SLK (human)) of the same compound?
**A.** 100%

**Q.** What about the kinase still bound, per cent of control (STK32C (human)) of the same compound?
**A.** 76%

**Q.** And the kinase still bound, per cent of control (IRAK3 (human))?
**A.** 100%

**Q.** And the kinase still bound, per cent of control [3]?
**A.** 100%

**Q.** What about the kinase still bound, per cent of control (MAST1 (human)) of the same compound?
**A.** 98%
